In data set [1] the test system is HT-29. The experiment in a line: cells. The conditions noted are these: Homo sapiens, HT-29, 96 h, read-out: BrdU IC50.
Method: Cellular proliferation was assessed using the Cell Proliferation ELISA, bromodeoxyuridine (BrdU) kit (Roche) including reagents, according to the kit protocol.
Data set [2] deals with HCT 116 tumor xenograft. The data set can be described thus: Microscopy of tumor sections (Caspase-3, H&E). The format is in vivo, mouse. The conditions noted are these: 170 mg/kg twice-weekly for three weeks. The method, then:
The studies in Examples 20, 21, and 22 used female mice nu/nu athymic mice. Compound 1 was formulated fresh each week for dosing.
HCT 116 colorectal carcinoma cells were implanted in the animals' right hind flanks subcutaneously with 200 μL of a 2.5×10^7 cells/mL suspension [1:1 Dulbecco's PBS (DPBS) with cells:Matrigel™. For each of the studies of compound distribution, pHH3 levels, and tumor section microscopy, after the tumors reached an average volume of 500 mm^3, the animals were weighed and sorted into randomized groups before initial dosing. Dosing schedules are provided separately for each of the studies in Examples 28, 29, and 30.
Following the treatment, tumors were harvested, placed in Streck fixative, paraffin embedded, sectioned, and transferred to slides. Tumor sections were stained with hematoxylin and eosin (H&E). Hematoxylin stains negatively charged nucleic acid structures, such as nuclei and ribosomes, blue, whereas eosin stains proteins pink. Treatments were administered on Day 1, 4, 8, 11, 15, and 18, with tumors being excised Day 4, 11, 18, and 25 of the study. All images in this Figure were taken at 40× magnification.

Data set [3] deals with pHH3 in HT-29. The experiment in a line: cells. Conditions: Homo sapiens, HT-29, 1 h, read-out: pHH3 IC50.
Data set [4] has as its system Calu 6 lung carcinoma xenograft. The data set can be described thus: In vivo efficacy, mouse xenograft. The conditions noted are these: CALU6 (NSCLC). The method, then: Percent TGI is then calculated with the following equation: […]
Time To Endpoint (TTE) was calculated for each individual animal to reach the predetermined study end point where the tumor volume becomes 1200 mm^3 or 10% of body weight or a greater than 20% body weight loss for two sequential measurements. The TTE is calculated and the median value is recorded for the group. Tumor Growth Delay (TGD) is then calculated with the following equation: […]
Calu 6 lung carcinoma cells [200 μL of a 5×10^7 cells/ml suspension (1:1 DPBS with cells:Matrigel)] were implanted subcutaneously in the right hind flank of mice. After 11 days, when tumors reached an average volume of approximately 150 mm^3, animals were weighed, randomized by tumor volume (l×w×h×0.52), and assigned to the various study groups before initial dosing.

Data set [5] concerns the target T1, DDR2 (Homo sapiens, UniProt Q16832).
T1 construct: purchased Upstate Biotechnology, Dundee, UK
The data set can be described thus: Radiometric kinase assay (Upstate panel). The class given is biochemical.

The target in data set [6] is T2, c-Raf (Homo sapiens, UniProt P04049).
T2 construct: purchased Upstate Biotechnology, Dundee, UK
The experiment in a line: Radiometric kinase assay (Upstate panel). The class given is biochemical.

Data set [7] in a line: Pharmacokinetics, single bolus intravenous injection. The format is in vivo, Sprague-Dawley rats. The conditions noted are these: Sprague-Dawley, rat, plasma, 5 mg/kg. The text has this: Pharmacokinetic parameters were estimated using noncompartmental analysis within WinNonlin v. 4.1. Quantification of Compound 2 was done by HPLC-MS/MS after extraction from plasma with acetonitrile. […] For rising dose experiments measuring exposure for each species, sets containing several animals were singly dosed at a given dose. Results from single-dose experiments are shown in FIG. 10A, Table 43, and in FIG. 10B and Table 44, respectively. […] C0 is initial concentration extrapolated to time zero. AUCINF is area under the plasma-concentration time curve from time zero extrapolated to the infinite time. CL is clearance; Vss is steady state volume of distribution. T1/2 is half-life.

Data set [8] in a line: Bioavailability profile, IV, IP and PO. The format is in vivo, mice. The conditions noted are these: for F: mice, 50 mg/kg Compound 1, bioavailability. The text has this:
Pharmacokinetic parameters were estimated using noncompartmental analysis within WinNonlin v. 4.1. […] For rising dose experiments measuring exposure for each species, sets containing several animals were singly dosed at a given dose. […] Abbreviations are as in Table 18; F is fraction of dose absorbed.

The mark [9] stands for this setting: CD-1, mouse, plasma, ip, 50 mg/kg.
[10] abbreviates: CD-1, mouse, plasma, iv, 50 mg/kg.
The mark [11] stands for this setting: CD-1, mouse, plasma, po, 50 mg/kg.

T2 sequence (P04049 whole entry): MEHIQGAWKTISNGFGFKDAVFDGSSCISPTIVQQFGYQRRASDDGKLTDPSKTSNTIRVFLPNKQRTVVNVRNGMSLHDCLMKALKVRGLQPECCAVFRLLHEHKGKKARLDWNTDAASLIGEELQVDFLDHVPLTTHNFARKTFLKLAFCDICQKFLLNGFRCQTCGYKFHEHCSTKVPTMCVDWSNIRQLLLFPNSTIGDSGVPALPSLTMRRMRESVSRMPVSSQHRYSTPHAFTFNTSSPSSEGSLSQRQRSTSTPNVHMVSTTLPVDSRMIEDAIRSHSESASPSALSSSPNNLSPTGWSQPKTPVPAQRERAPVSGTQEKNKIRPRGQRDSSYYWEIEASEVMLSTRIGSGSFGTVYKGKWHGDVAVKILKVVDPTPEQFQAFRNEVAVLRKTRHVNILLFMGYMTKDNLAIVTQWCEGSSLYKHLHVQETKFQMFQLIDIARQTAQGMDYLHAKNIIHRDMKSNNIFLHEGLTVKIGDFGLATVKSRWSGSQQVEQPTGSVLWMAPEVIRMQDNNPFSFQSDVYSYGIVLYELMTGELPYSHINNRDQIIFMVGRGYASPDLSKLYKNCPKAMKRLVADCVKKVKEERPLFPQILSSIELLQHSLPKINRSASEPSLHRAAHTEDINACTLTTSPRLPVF
T1 sequence (Q16832 22-855): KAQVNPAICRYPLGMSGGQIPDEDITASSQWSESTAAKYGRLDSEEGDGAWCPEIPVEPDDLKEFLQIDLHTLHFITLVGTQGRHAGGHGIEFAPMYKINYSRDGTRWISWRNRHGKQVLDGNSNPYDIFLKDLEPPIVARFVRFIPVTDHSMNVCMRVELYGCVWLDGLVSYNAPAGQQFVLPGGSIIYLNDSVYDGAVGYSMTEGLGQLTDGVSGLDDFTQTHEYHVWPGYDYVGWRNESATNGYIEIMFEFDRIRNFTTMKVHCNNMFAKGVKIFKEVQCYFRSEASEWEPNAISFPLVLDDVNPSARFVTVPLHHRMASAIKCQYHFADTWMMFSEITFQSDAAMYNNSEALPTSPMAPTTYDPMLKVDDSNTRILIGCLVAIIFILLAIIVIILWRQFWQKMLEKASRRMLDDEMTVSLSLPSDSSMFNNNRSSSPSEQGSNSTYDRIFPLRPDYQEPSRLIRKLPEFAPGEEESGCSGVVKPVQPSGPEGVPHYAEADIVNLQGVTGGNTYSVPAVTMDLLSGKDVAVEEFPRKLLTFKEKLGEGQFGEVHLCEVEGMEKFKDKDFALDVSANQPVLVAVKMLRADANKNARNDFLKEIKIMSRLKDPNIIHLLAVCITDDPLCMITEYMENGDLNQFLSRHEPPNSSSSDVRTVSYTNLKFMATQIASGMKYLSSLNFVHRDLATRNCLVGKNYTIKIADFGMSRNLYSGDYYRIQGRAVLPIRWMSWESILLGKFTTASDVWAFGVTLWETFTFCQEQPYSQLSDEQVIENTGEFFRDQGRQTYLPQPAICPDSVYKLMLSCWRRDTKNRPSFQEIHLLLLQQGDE

Consider `CS(=O)(=O)O.O=C(Nc1cccc(Cl)c1)Nc1ncc(CCNc2ncnc3ccsc23)s1` [Compound 1, 1-(3-chlorophenyl)-3-{5-[2-(thieno[3,2-d]pyrimidin-4-ylamino)ethyl]thiazo}-urea], for which the 50% inhibitory concentration (IC50) in data set [1] is 24.4 nM; in data set [3], 60 nM; in data set [5], 0.082 µM; in data set [6], 0.1 µM. In addition, in data set [2], the “large polyploid cells in tumor” value is “appeared by Day 4 and persisted for at least 25 days”. In data set [2] (up to 18 days), the “caspase-3 positive cells in tumor versus vehicle” value is listed as “significant increase”. Besides, the “% TGI” value in data set [4] (42.5 mg/kg biw × 3) is listed as 23.5%; in data set [4] (85 mg/kg biw × 3), 28.7%; in data set [4] (170 mg/kg biw × 3), 91.4%.
As for `O=C(Nc1cccc(Cl)c1)Nc1ncc(CCNc2ncnc3ccsc23)s1` [Compound 2, 1-(3-chlorophenyl)-3-{5-[2-(thieno[3,2-d]pyrimidin-4-ylamino)ethyl]thiazol-2-yl}-urea], the AUC(0-inf) in data set [7] stood at 2100 ng·h/mL; in data set [8] (setting [9]) it was 46200 ng·h/mL; in data set [8] (setting [10]) it was 43600 ng·h/mL; in data set [8] (setting [11]), 28300 ng·h/mL. Further, the C0 in data set [7] turned out to be 3600 ng/mL; in data set [8] (setting [10]), 42000 ng/mL. Besides, the clearance in data set [7] was found to be 41.2 mL/min/kg; in data set [8] (setting [10]) it was 19.1 mL/min/kg. Further, the half-life in data set [7] was 48 min; in data set [8] (setting [9]), 42 min; in data set [8] (setting [10]) it was 48 min; in data set [8] (setting [11]), 198 min. Moreover, the Vd in data set [7] (read-out: Vss) was found to be 1.8 L/kg; in data set [8] (CD-1, mouse, plasma, iv, 50 mg/kg, read-out: Vss) it was 1.2 L/kg. In addition, the F came to 106% in data set [8] (IP) and 65% in data set [8] (PO).

The values above are taken from US20110293745A1, “AURORA KINASE INHIBITORS” (SUNESIS PHARMACEUTICALS, INC., priority 2008, published 2011).
